The subject of series [1] is Kochia scoparia (kochia, KCHSC). Put plainly: Greenhouse postemergence trial KCHSC. It is filed as in vivo. As to conditions: KCHSC; for % visual injury, Obs: applied alone.
In series [2] the test system is Veronica persica (bird's-eye speedwell, VERPE). Put plainly: Greenhouse postemergence trial VERPE. Type of series: in vivo.
Protocol: (§1) Seeds of the desired test plant species were planted in a 90:10% v/v (volume/volume) mixture of PRO-MIX® BX (Premier Tech Horticulture, Quakertown, PA, USA) and PROFILE® GREENS GRADE™ (Profile Products LLC, Buffalo Grove, IL, USA) planting mixture, which typically has a pH of 5.2 to 6.2 and an organic matter content of at least 50 percent, in plastic pots with a surface area of 103.2 square centimeters (cm^2). […] The plants were grown for 7-36 days (d) in a greenhouse with an approximate 14-hour (h) photo-period which was maintained at about 23° C. during the day and 22° C. during the night. Nutrients and water were added on a regular basis and supplemental lighting was provided with overhead metal halide 1000-Watt lamps as necessary. The plants were employed for testing when they reached the second or third true leaf stage.
(§2) Emulsifiable concentrates of each of each pyridine carboxylate herbicide (Compound A or Compound B) were prepared at 100 grams acid equivalent per liter (g ae/L). The emulsifiable concentrates also included a safener, cloquintocet-mexyl, at 120 grams active ingredient per liter (g ai/L), unless otherwise noted below. An aliquot of each emulsifiable concentrate was placed in a 25 mL glass vial and diluted with an aqueous mixture of 1.25% (v/v) ACTIROB® B esterified rapeseed oil (Bayer Crop Science, Research Triangle Park, NC, USA) or MSO® Concentrate with LECI-TECH® methylated soybean oil (Loveland Products, Loveland, CO, USA) to obtain concentrated stock solutions at the highest application rate for each herbicide, based upon a 12 milliliter (mL) application volume at a rate of 187 liters per hectare (L/ha). The concentrated stock solutions were further diluted with an aqueous mixture of 1.25% v/v ACTIROB® B or MSO® Concentrate with LECI-TECH® to obtain stock solutions at reduced application rates for each herbicide. Spray solutions of the herbicide combinations (Compound A or Compound B plus synthetic auxin herbicide or auxin transport inhibitor) were prepared by adding weighed amounts or aliquots of the synthetic auxin herbicide or auxin transport inhibitor to the stock solutions of Compound A or Compound B to form 12-mL spray solutions in two-way combinations.
(§3) The spray solutions were applied to the plant material with an overhead Mandel track sprayer equipped with 8002E nozzles calibrated to deliver 187 L/ha over an application area of 0.503 square meters (m^2) at a spray height of 18 inches (43 centimeters (cm)) above the average plant canopy. Control plants were sprayed in the same manner with the solvent blank. All pyridine carboxylate herbicide (component a) application rates are given as “g ae/ha” and all synthetic auxin herbicide or auxin transport inhibitor (component b) application rates are given as “g ai/ha.”
(§4) The treated plants and control plants were placed in a greenhouse as described above and watered by sub-irrigation to prevent wash-off of the test compounds. After 20-22 d, the condition of the test plants as compared with that of the control plants was determined visually and scored on a scale of 0 to 100 percent where 0 corresponds to no injury and 100 corresponds to complete kill.
In series [3] the test system is Viola arvensis (field violet, VIOAR). Put plainly: Greenhouse postemergence trial VIOAR. Type of series: in vivo. As to conditions: VIOAR.
Series [4] relates to Polygonum convolvulus (wild buckwheat, POLCO). Put plainly: Greenhouse postemergence trial POLCO. As to conditions: POLCO; for % visual injury, Obs: applied alone. Type of series: in vivo.
Protocol: as §1, §2, §3, §4
The test system of series [5] is Sinapis arvensis (wild mustard, SINAR). Put plainly: Greenhouse postemergence trial SINAR. It is filed as in vivo. As to conditions: SINAR; for % visual injury, Obs: applied alone.
For series [6], the system named is Matricaria chamomilla (wild chamomile, MATCH). Put plainly: Greenhouse postemergence trial MATCH.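 On all read-outs here: greenhouse plants sprayed at second to third true leaf stage, injury rated by eye 20-22 d later versus solvent-blank controls on 0–100 scale, 0 no injury, 100 complete kill.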 It is filed as in vivo. As to conditions: MATCH; for % visual injury, Obs: applied alone.
Series [7] deals with Anthemis arvensis (field chamomile, ANTAR). Put plainly: Greenhouse postemergence trial ANTAR. It is filed as in vivo. As to conditions: ANTAR.
Protocol: as §1, §2, §3, §4
Series [8] concerns Cyanus segetum (cornflower, CENCY). Put plainly: Greenhouse postemergence trial CENCY. It is filed as in vivo. As to conditions: CENCY.
Protocol: as §1, §2, §3, §4
Series [9] deals with Veronica hederifolia (ivyleaf speedwell, VERHE). The experiment in a line: Greenhouse postemergence trial VERHE. Type of series: in vivo. The following applies: VERHE.
The test system of series [10] is Papaver rhoeas (corn poppy), herbicide-resistant (PAPRH-R). Put plainly: Greenhouse postemergence trial PAPRH-R. It is filed as in vivo.
Protocol: as §1, §2, §3, §4
The subject of series [11] is Lamium purpureum (purple deadnettle, LAMPU). Put plainly: Greenhouse postemergence trial LAMPU.
Protocol: (§5) The plants were grown for 7-36 days (d) in a greenhouse with an approximate 14-hour (h) photo-period which was maintained at about 23° C. during the day and 22° C. during the night. Nutrients and water were added on a regular basis and supplemental lighting was provided with overhead metal halide 1000-Watt lamps as necessary. The plants were employed for testing when they reached the second or third true leaf stage.
(§6) The emulsifiable concentrates also included a safener, cloquintocet-mexyl, at 120 grams active ingredient per liter (g ai/L), unless otherwise noted below.
(§7) Control plants were sprayed in the same manner with the solvent blank. All pyridine carboxylate herbicide (component a) application rates are given as “g ae/ha” and all synthetic auxin herbicide or auxin transport inhibitor (component b) application rates are given as “g ai/ha.”
as §4
For series [12], the system named is Matricaria inodora (false chamomile, MATIN). Put plainly: Greenhouse postemergence trial MATIN. Type of series: in vivo. The following applies: MATIN.
For series [13], the system named is Capsella bursa-pastoris (shepherd's purse, CAPBP). The experiment in a line: Greenhouse postemergence trial CAPBP. Type of series: in vivo. The following applies: CAPBP.
Protocol: as §1, §2, §3, §4
In series [14] the test system is Stellaria media (chickweed, STEME). The experiment in a line: Greenhouse postemergence trial STEME. It is filed as in vivo. As to conditions: STEME.
Series [15] deals with Brassica napus (winter rape, BRSNW). Put plainly: Greenhouse postemergence trial BRSNW. It is filed as in vivo.
Protocol: as §1, §2, §3, §4
For series [16], the system named is Viola tricolor (wild pansy, VIOTR). Put plainly: Greenhouse postemergence trial VIOTR.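 Further: greenhouse plants sprayed at second to third true leaf stage, injury rated visually after 20-22 d against solvent-blank sprayed controls, 0 meaning no injury and 100 complete kill.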
Protocol: as §1, §2, §3, §4
Series [17] relates to Papaver rhoeas (corn poppy, PAPRH). Put plainly: Greenhouse postemergence trial PAPRH. Type of series: in vivo. As to conditions: PAPRH.
Protocol: as §1, §2, §3, §4
In series [18] the test system is Salsola kali (Russian thistle, SASKR). Put plainly: Greenhouse postemergence trial SASKR.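 On all read-outs here: greenhouse plants sprayed at second or third true leaf stage, injury rated by eye after 20-22 d against solvent-blank controls, 0 meaning no injury, 100 complete kill.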 It is filed as in vivo. As to conditions: SASKR; for % visual injury, Obs: applied alone.
Series [19] relates to Cirsium arvense (Canadian thistle, CIRAR). The experiment in a line: Greenhouse postemergence trial CIRAR. Type of series: in vivo. The following applies: for % visual injury, Obs: applied alone.
Protocol: as §1, §2, §3, §4
The test system of series [20] is Matricaria discoidea (pineapple weed, MATMT). The experiment in a line: Greenhouse postemergence trial MATMT. Type of series: in vivo.
Series [21] relates to Hordeum vulgare (spring barley, HORVS). Type of series: in vivo.
The test system of series [22] is Amaranthus retroflexus (pigweed, AMARE). Put plainly: Greenhouse postemergence trial AMARE.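 Further: Greenhouse-grown plants sprayed at second to third true leaf stage, injury rated by eye after 20-22 d versus solvent-blank sprayed controls, 0 = no injury, 100 = complete kill.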 Type of series: in vivo.
For series [23], the system named is Chenopodium album L. (common lambsquarters, CHEAL). Put plainly: Greenhouse postemergence trial CHEAL.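 Further: greenhouse plants sprayed at second to third true leaf stage, injury rated by eye after 20-22 d versus solvent-blank sprayed controls, 0 = no injury, 100 = complete kill.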 It is filed as in vivo.
Protocol: as §5, §6, §7, §4
The subject of series [24] is Triticum aestivum (spring wheat, TRZAS). It is filed as in vivo.
The test system of series [25] is Hordeum vulgare (winter barley, HORVW). Put plainly: Greenhouse postemergence crop phytotoxicity HORVW. It is filed as in vivo. As to conditions: HORVW; partner herbicide 560 g/ha alone.
The test system of series [26] is Triticum aestivum (winter wheat, TRZAW). Put plainly: Greenhouse postemergence crop phytotoxicity TRZAW. It is filed as in vivo. As to conditions: TRZAW; partner herbicide 560 g/ha alone.
Protocol: as §1, §2, §3, §4
Setting [27] is: partner herbicide 560 g/ha alone.

On to `CC(Oc1ccc(Cl)cc1Cl)C(=O)O` (stereo not drawn) [Dichlorprop], for which the “% visual injury, Obs” value in series [1] (560 g/ha) was 75%; in [2] (VERPE, applied alone, 560 g/ha) it was 30%; in series [3] (applied alone, 560 g/ha) it was 25%; in series [4] (560 g/ha), 95%; in series [5] (560 g/ha), 100%; in [6] (560 g/ha), 50%. For the same compound, the “% visual injury, Obs” value amounted to 95% in series [7] (applied alone, 560 g/ha); 100% in series [8] (applied alone, 560 g/ha); 60% in series [9] (applied alone, 560 g/ha); 30% in series [10] (PAPRH-R, applied alone, 560 g/ha); 30% in [11] (LAMPU, applied alone, 560 g/ha); 60% in series [12] (applied alone, 560 g/ha). The “% visual injury, Obs” value in series [13] (applied alone, 560 g/ha) came to 70%; in series [14] (applied alone, 560 g/ha), 30%; in series [16] (VIOTR, applied alone, 560 g/ha), 85%; in series [17] (applied alone, 560 g/ha), 65%; in [18] (560 g/ha) it was 70%; in [19] (CIRAR, 560 g/ha), 75%. The “% visual injury, Obs” value in series [20] (MATMT, applied alone, 560 g/ha) is listed as 10%. Moreover, the plant injury at 560 g/ha in series [15] (Brassica napus, post-emergence, BRSNW, applied alone, 560 g/ha, read-out: % visual injury, Obs) was found to be 75%.
Regarding `Nc1c(Cl)c(F)nc(OCC(=O)O)c1Cl` [Fluroxypyr], the pest or weed control in [1] (Bassia scoparia, post-emergence, Fluroxypyr 200 g/ha, read-out: % visual injury Obs) amounted to 70%; in series [2] (Veronica persica, post-emergence, VERVE, Fluroxypyr 200 g/ha, read-out: % visual injury Obs), 60%; in [3] (Viola arvensis, post-emergence, Fluroxypyr 200 g/ha, read-out: % visual injury Obs) it was 10%; in series [4] (Fallopia convolvulus, post-emergence, Fluroxypyr 200 g/ha, read-out: % visual injury Obs) it was 50%; in series [5] (Mutarda arvensis, post-emergence, Fluroxypyr 200 g/ha, read-out: % visual injury Obs), 90%; in [6] (Matricaria chamomilla, post-emergence, Fluroxypyr 200 g/ha, read-out: % visual injury Obs) it was 10%. Moreover, the pest or weed control in series [7] (Anthemis arvensis, post-emergence, Fluroxypyr 200 g/ha, read-out: % visual injury Obs) was 60%; in series [8] (Centaurea cyanus, post-emergence, Fluroxypyr 200 g/ha, read-out: % visual injury Obs) it was 100%; in series [9] (Veronica hederifolia, post-emergence, Fluroxypyr 200 g/ha, read-out: % visual injury Obs), 10%; in series [10] (Papaver rhoeas, post-emergence, PAPRH-R, Fluroxypyr 200 g/ha, read-out: % visual injury Obs) it was 10%; in series [12] (Tripleurospermum inodorum, post-emergence, Fluroxypyr 200 g/ha, read-out: % visual injury Obs) it was 65%; in series [13] (Capsella bursa-pastoris, post-emergence, Fluroxypyr 200 g/ha, read-out: % visual injury Obs), 10%. The pest or weed control turned out to be 95% in series [14] (Stellaria media, post-emergence, Fluroxypyr 200 g/ha, read-out: % visual injury Obs); 0% in [17] (Papaver rhoeas, post-emergence, Fluroxypyr 200 g/ha, read-out: % visual injury Obs); 60% in [18] (Salsola kali, post-emergence, Fluroxypyr 200 g/ha, read-out: % visual injury Obs); 10% in [19] (Cirsium arvense, post-emergence, CIRAR, Fluroxypyr 200 g/ha, read-out: % visual injury Obs); 0% in series [20] (Matricaria discoidea, post-emergence, MATMT, Fluroxypyr 200 g/ha, read-out: % visual injury Obs). Moreover, the “PAPRH-R % visual injury Obs” value in [10] (Fluroxypyr 70 g/ha (Table 38)) and in series [10] (Fluroxypyr 100 g/ha (Table 38)) was 25% each time. For the same compound, the pest or weed control at 200 g/ha in series [11] (Lamium purpureum, post-emergence, read-out: % visual injury Obs) turned out to be 65%; in [16] (Viola tricolor, post-emergence, read-out: % visual injury Obs) it was 65%. Moreover, the plant injury in series [15] (Brassica napus, post-emergence, BRSNW, Fluroxypyr 200 g/ha, read-out: % visual injury Obs) worked out at 30%. Further, the “MATMT % visual injury Obs” value in series [20] (Fluroxypyr 70 g/ha (Table 38)) and in series [20] (Fluroxypyr 100 g/ha (Table 38)) was 10% each time.
On to `COC(=O)c1nc(-c2ccc(Cl)c(OC)c2F)cc(N)c1Cl` [Halatvcifen-methyl], for which the “% visual injury, Obs” value in [1] (3 g/ha) was 40%; in series [21] (HORVS, applied alone, 3 g/ha), 0%; in series [22] (AMARE, applied alone, 3 g/ha) it was 68%; in [4] (3 g/ha) it was 20%; in series [5] (3 g/ha), 40%; in series [6] (3 g/ha), 5%. Besides, the “% visual injury, Obs” value in [23] (CHEAL, applied alone, 3 g/ha) turned out to be 83%; in series [15] (BRSNW, applied alone, 3 g/ha) it was 15%; in series [24] (TRZAS, applied alone, 3 g/ha) it was 0%; in series [18] (3 g/ha), 73%; in [19] (CIRAR, 3 g/ha), 10%.
Turning to `Cc1cc(Cl)ccc1OCC(=O)O` [MCPA-DMA, MCPA-dimethylammonium, reference compound], the “% visual injury (crop phytotoxicity)” value in series [21] (Hordeum vulgare (spring barley, HORVS), in vivo) came out at 0%; in series [24] (Triticum aestivum (spring wheat, TRZAS), in vivo), 0%. Moreover, in [21] (in vivo), the “HORVS % visual injury Obs” value was 0%. Moreover, the figures for the “% visual injury” value in series [22] (in vivo) and in series [23] (in vivo) were 63% and 75%, respectively. The “BRSNW % visual injury Obs” value in series [15] (MCPA-DMA 400 g/ha (Table 37)) turned out to be 83%. Moreover, the “TRZAS % visual injury Obs” value in series [24] (in vivo) was determined as 0%. The “CIRAR % visual injury Obs” value in series [19] (in vivo) worked out at 60%.
As for `Cc1cc(Cl)ccc1OCC(=O)O` [MCPA], the “visual injury, Obs” value in series [1] (setting [27]) was found to be 30%; in series [2] (VERPE, partner herbicide 560 g/ha alone), 60%; in series [21] (HORVS, partner herbicide 560 g/ha alone), 0%; in series [3] (setting [27]), 20%; in series [4] (setting [27]), 30%; in [5] (setting [27]), 100%. Moreover, the “visual injury, Obs” value in series [6] (setting [27]) worked out at 30%; in series [7] (setting [27]), 60%; in [8] (setting [27]), 95%; in [9] (setting [27]) it was 65%; in series [10] (PAPRH-R, partner herbicide 560 g/ha alone), 60%; in [11] (LAMPU, partner herbicide 560 g/ha alone), 10%. Further, the “visual injury, Obs” value in [12] (setting [27]) was determined as 50%; in series [13] (setting [27]) it was 60%; in series [25] it was 0%; in [14] (setting [27]) it was 50%; in series [15] (BRSNW, partner herbicide 560 g/ha alone) it was 90%; in series [24] (TRZAS, partner herbicide 560 g/ha alone) it was 0%. For the same compound, the “visual injury, Obs” value was found to be 60% in [16] (VIOTR, partner herbicide 560 g/ha alone); 0% in series [26]; 95% in [17] (setting [27]); 30% in [18] (setting [27]); 65% in series [19] (CIRAR, partner herbicide 560 g/ha alone); 5% in series [20] (MATMT, partner herbicide 560 g/ha alone).

These data come from patent US12568967B2, “Compositions comprising pyridine carboxylate herbicides with synthetic auxin herbicides or auxin transport inhibitors” (priority 2018, dated 2026).
